Assay results as given in patent US12612441B2, “Polypeptide and therapeutic uses thereof” (Vitalixir (Beijing) Co., Ltd, priority 2019, dated 2026).
Where no end group is shown, it is not given here. [ ]: non-standard residue; d: D form. Aib = CC(C)(N)C(=O)O

Each substance was assayed on db/db mice (assay: Blood glucose lowering in db/db mice (Example 7)). Settings: db/db male mice, 30 nmol/kg subcutaneous single dose, blood glucose 0-10 hours, AUC, vs PBS control; FIG. 1.
Assay type: in vivo
Protocol: db/db mice were housed in animal feeding rooms with strictly controlled environmental conditions. The temperature in the feeding room was maintained at 20-24° C. and the humidity was maintained at 40-70%. The temperature and humidity of the feeding room were monitored in real time by a temperature and humidity meter, and the temperature and humidity were recorded twice a day (once in the morning and once in the afternoon). The lighting in the animal feeding room was controlled by an electronic timing light-on system. The lights were turned on for 12 hours and turned off for 12 hours every day (on at 7:00 in the morning and off at 19:00 in the afternoon). During the experiment, the mice were individually housed in each cage, and toys were provided to the mice in each cage. During the experiment mice had free access to water. The db/db male mice (6 weeks old) were given one week to acclimate to the environmental conditions of the test facility. Baseline blood glucose and body weight were recorded for three days before the test (−3 day to −1 day). The mice were randomly grouped based on three-day blood glucose and body weight, with 6 mice in each group. The mice were injected subcutaneously with PBS (5 ml/kg, control group) or the peptide compounds 1, 2, 8, 16, 18, 19, 24, and 36 (30 nmol/kg) respectively at 10:00 am. Blood was collected at 0 hour before drug administration, and 1, 2, 4, 6, 8 and 10 hours after administration, and blood glucose was measured using a OneTouch glucose meter (Johnson & Johnson) and test strips. Blood glucose curves were plotted with time as the abscissa and the blood glucose value at different time point as the ordinate, the areas under the curve (AUC) were calculated, and the hypoglycemic effects and duration of time of the peptide compounds were compared.

**Q.** “Y(aib)EGTFTSDLSI(aib)LEKEAVRLFIEWLLAGGPSSGAPPPS-NH2 (YXEGTFTSDLSIXLEKEAVRLFIEWLLAGGPSSGAPPPS; Aib; C-terminal amide; MOD_RES (2)..(2) X=aminoisobutyric aicd; MOD_RES (13)..(13) X=aminoisobutyric aicd; MOD_RES (39)..(39) AMIDATION, C-termianl amidation) [Compound 36]” was tested. Which blood glucose did it give?
**A.** significantly reduce blood glucose

**Q.** Which blood glucose does the source give for “Y(aib)EGTFTSDLSIQLEKEAARLFIEWLLAGGPSSGAPPPS-NH2 (Y[Aib]EGTFTSDLSIQLEKEAARLFIEWLLAGGPSSGAPPPS-NH2; N-terminus assumed; SMILES CC[C@H](C)[C@H](NC(=O)[C@H](Cc1ccccc1)NC(=O)[C@H](CC(C)C)NC(=O)[C@H](CCCNC(=N)N)NC(=O)[C@H](C)NC(=O)[C@H](C)NC(=O)[C@H](CCC(=O)O)NC(=O)[C@H](CCCCN)NC(=O)[C@H](CCC(=O)O)NC(=O)[C@H](CC(C)C)NC(=O)[C@H](CCC(N)=O)NC(=O)[C@@H](NC(=O)[C@H](CO)NC(=O)[C@H](CC(C)C)NC(=O)[C@H](CC(=O)O)NC(=O)[C@H](CO)NC(=O)[C@@H](NC(=O)[C@H](Cc1ccccc1)NC(=O)[C@@H](NC(=O)CNC(=O)[C@H](CCC(=O)O)NC(=O)C(C)(C)NC(=O)[C@@H](N)Cc1ccc(O)cc1)[C@@H](C)O)[C@@H](C)O)[C@@H](C)CC)C(=O)N[C@@H](CCC(=O)O)C(=O)N[C@@H](Cc1c[nH]c2ccccc12)C(=O)N[C@@H](CC(C)C)C(=O)N[C@@H](CC(C)C)C(=O)N[C@@H](C)C(=O)NCC(=O)NCC(=O)N1CCC[C@H]1C(=O)N[C@@H](CO)C(=O)N[C@@H](CO)C(=O)NCC(=O)N[C@@H](C)C(=O)N1CCC[C@H]1C(=O)N1CCC[C@H]1C(=O)N1CCC[C@H]1C(=O)N[C@@H](CO)C(N)=O) [Compound 18]” here?
**A.** significantly reduce blood glucose

**Q.** “Y(aib)EGTFTSDLSIQLEKEAVKLFIEWLLAGGPSSGAPPPS-NH2 (Y[Aib]EGTFTSDLSIQLEKEAVKLFIEWLLAGGPSSGAPPPS-NH2; N-terminus assumed; SMILES CC[C@H](C)[C@H](NC(=O)[C@H](CO)NC(=O)[C@H](CC(C)C)NC(=O)[C@H](CC(=O)O)NC(=O)[C@H](CO)NC(=O)[C@@H](NC(=O)[C@H](Cc1ccccc1)NC(=O)[C@@H](NC(=O)CNC(=O)[C@H](CCC(=O)O)NC(=O)C(C)(C)NC(=O)[C@@H](N)Cc1ccc(O)cc1)[C@@H](C)O)[C@@H](C)O)C(=O)N[C@@H](CCC(N)=O)C(=O)N[C@@H](CC(C)C)C(=O)N[C@@H](CCC(=O)O)C(=O)N[C@@H](CCCCN)C(=O)N[C@@H](CCC(=O)O)C(=O)N[C@@H](C)C(=O)N[C@H](C(=O)N[C@@H](CCCCN)C(=O)N[C@@H](CC(C)C)C(=O)N[C@@H](Cc1ccccc1)C(=O)N[C@H](C(=O)N[C@@H](CCC(=O)O)C(=O)N[C@@H](Cc1c[nH]c2ccccc12)C(=O)N[C@@H](CC(C)C)C(=O)N[C@@H](CC(C)C)C(=O)N[C@@H](C)C(=O)NCC(=O)NCC(=O)N1CCC[C@H]1C(=O)N[C@@H](CO)C(=O)N[C@@H](CO)C(=O)NCC(=O)N[C@@H](C)C(=O)N1CCC[C@H]1C(=O)N1CCC[C@H]1C(=O)N1CCC[C@H]1C(=O)N[C@@H](CO)C(N)=O)[C@@H](C)CC)C(C)C) [Compound 24]” was tested. Which blood glucose did it give?
**A.** significantly reduce blood glucose

**Q.** Which blood glucose does the source give for “Y(aib)EGTFTSDLSIQLEKEAVRLFIEWLLAGGPSSGAPPPS-NH2 (Y[Aib]EGTFTSDLSIQLEKEAVRLFIEWLLAGGPSSGAPPPS-NH2; N-terminus assumed; SMILES CC[C@H](C)[C@H](NC(=O)[C@H](CO)NC(=O)[C@H](CC(C)C)NC(=O)[C@H](CC(=O)O)NC(=O)[C@H](CO)NC(=O)[C@@H](NC(=O)[C@H](Cc1ccccc1)NC(=O)[C@@H](NC(=O)CNC(=O)[C@H](CCC(=O)O)NC(=O)C(C)(C)NC(=O)[C@@H](N)Cc1ccc(O)cc1)[C@@H](C)O)[C@@H](C)O)C(=O)N[C@@H](CCC(N)=O)C(=O)N[C@@H](CC(C)C)C(=O)N[C@@H](CCC(=O)O)C(=O)N[C@@H](CCCCN)C(=O)N[C@@H](CCC(=O)O)C(=O)N[C@@H](C)C(=O)N[C@H](C(=O)N[C@@H](CCCNC(=N)N)C(=O)N[C@@H](CC(C)C)C(=O)N[C@@H](Cc1ccccc1)C(=O)N[C@H](C(=O)N[C@@H](CCC(=O)O)C(=O)N[C@@H](Cc1c[nH]c2ccccc12)C(=O)N[C@@H](CC(C)C)C(=O)N[C@@H](CC(C)C)C(=O)N[C@@H](C)C(=O)NCC(=O)NCC(=O)N1CCC[C@H]1C(=O)N[C@@H](CO)C(=O)N[C@@H](CO)C(=O)NCC(=O)N[C@@H](C)C(=O)N1CCC[C@H]1C(=O)N1CCC[C@H]1C(=O)N1CCC[C@H]1C(=O)N[C@@H](CO)C(N)=O)[C@@H](C)CC)C(C)C) [Compound 19]” here?
**A.** significantly reduce blood glucose

**Q.** “Y(aib)EGTFTSDYSIYLDEEAVKLFVNWLIAGGPSSGAPPPS-NH2 (Y[Aib]EGTFTSDYSIYLDEEAVKLFVNWLIAGGPSSGAPPPS-NH2; N-terminus assumed; SMILES CC[C@H](C)[C@H](NC(=O)[C@H](CC(C)C)NC(=O)[C@H](Cc1c[nH]c2ccccc12)NC(=O)[C@H](CC(N)=O)NC(=O)[C@@H](NC(=O)[C@H](Cc1ccccc1)NC(=O)[C@H](CC(C)C)NC(=O)[C@H](CCCCN)NC(=O)[C@@H](NC(=O)[C@H](C)NC(=O)[C@H](CCC(=O)O)NC(=O)[C@H](CCC(=O)O)NC(=O)[C@H](CC(=O)O)NC(=O)[C@H](CC(C)C)NC(=O)[C@H](Cc1ccc(O)cc1)NC(=O)[C@@H](NC(=O)[C@H](CO)NC(=O)[C@H](Cc1ccc(O)cc1)NC(=O)[C@H](CC(=O)O)NC(=O)[C@H](CO)NC(=O)[C@@H](NC(=O)[C@H](Cc1ccccc1)NC(=O)[C@@H](NC(=O)CNC(=O)[C@H](CCC(=O)O)NC(=O)C(C)(C)NC(=O)[C@@H](N)Cc1ccc(O)cc1)[C@@H](C)O)[C@@H](C)O)[C@@H](C)CC)C(C)C)C(C)C)C(=O)N[C@@H](C)C(=O)NCC(=O)NCC(=O)N1CCC[C@H]1C(=O)N[C@@H](CO)C(=O)N[C@@H](CO)C(=O)NCC(=O)N[C@@H](C)C(=O)N1CCC[C@H]1C(=O)N1CCC[C@H]1C(=O)N1CCC[C@H]1C(=O)N[C@@H](CO)C(N)=O) [Compound 2]” was tested. Which blood glucose did it give?
**A.** significantly reduce blood glucose

**Q.** For “Y(aib)EGTFTSDYSIYLDEEAVRLFVNWLIAGGPSSGAPPPS-NH2 (Y[Aib]EGTFTSDYSIYLDEEAVRLFVNWLIAGGPSSGAPPPS-NH2; N-terminus assumed; SMILES CC[C@H](C)[C@H](NC(=O)[C@H](CC(C)C)NC(=O)[C@H](Cc1c[nH]c2ccccc12)NC(=O)[C@H](CC(N)=O)NC(=O)[C@@H](NC(=O)[C@H](Cc1ccccc1)NC(=O)[C@H](CC(C)C)NC(=O)[C@H](CCCNC(=N)N)NC(=O)[C@@H](NC(=O)[C@H](C)NC(=O)[C@H](CCC(=O)O)NC(=O)[C@H](CCC(=O)O)NC(=O)[C@H](CC(=O)O)NC(=O)[C@H](CC(C)C)NC(=O)[C@H](Cc1ccc(O)cc1)NC(=O)[C@@H](NC(=O)[C@H](CO)NC(=O)[C@H](Cc1ccc(O)cc1)NC(=O)[C@H](CC(=O)O)NC(=O)[C@H](CO)NC(=O)[C@@H](NC(=O)[C@H](Cc1ccccc1)NC(=O)[C@@H](NC(=O)CNC(=O)[C@H](CCC(=O)O)NC(=O)C(C)(C)NC(=O)[C@@H](N)Cc1ccc(O)cc1)[C@@H](C)O)[C@@H](C)O)[C@@H](C)CC)C(C)C)C(C)C)C(=O)N[C@@H](C)C(=O)NCC(=O)NCC(=O)N1CCC[C@H]1C(=O)N[C@@H](CO)C(=O)N[C@@H](CO)C(=O)NCC(=O)N[C@@H](C)C(=O)N1CCC[C@H]1C(=O)N1CCC[C@H]1C(=O)N1CCC[C@H]1C(=O)N[C@@H](CO)C(N)=O) [Compound 1]”, which blood glucose is on record?
**A.** significantly reduce blood glucose

**Q.** How did the blood glucose turn out when “Y(aib)EGTFTSDYSIYLEKEAVRLFIEWLIAGGPSSGAPPPS-NH2 (Y[Aib]EGTFTSDYSIYLEKEAVRLFIEWLIAGGPSSGAPPPS-NH2; N-terminus assumed; SMILES CC[C@H](C)[C@H](NC(=O)[C@H](CC(C)C)NC(=O)[C@H](Cc1c[nH]c2ccccc12)NC(=O)[C@H](CCC(=O)O)NC(=O)[C@@H](NC(=O)[C@H](Cc1ccccc1)NC(=O)[C@H](CC(C)C)NC(=O)[C@H](CCCNC(=N)N)NC(=O)[C@@H](NC(=O)[C@H](C)NC(=O)[C@H](CCC(=O)O)NC(=O)[C@H](CCCCN)NC(=O)[C@H](CCC(=O)O)NC(=O)[C@H](CC(C)C)NC(=O)[C@H](Cc1ccc(O)cc1)NC(=O)[C@@H](NC(=O)[C@H](CO)NC(=O)[C@H](Cc1ccc(O)cc1)NC(=O)[C@H](CC(=O)O)NC(=O)[C@H](CO)NC(=O)[C@@H](NC(=O)[C@H](Cc1ccccc1)NC(=O)[C@@H](NC(=O)CNC(=O)[C@H](CCC(=O)O)NC(=O)C(C)(C)NC(=O)[C@@H](N)Cc1ccc(O)cc1)[C@@H](C)O)[C@@H](C)O)[C@@H](C)CC)C(C)C)[C@@H](C)CC)C(=O)N[C@@H](C)C(=O)NCC(=O)NCC(=O)N1CCC[C@H]1C(=O)N[C@@H](CO)C(=O)N[C@@H](CO)C(=O)NCC(=O)N[C@@H](C)C(=O)N1CCC[C@H]1C(=O)N1CCC[C@H]1C(=O)N1CCC[C@H]1C(=O)N[C@@H](CO)C(N)=O) [Compound 16]” was run?
**A.** significantly reduce blood glucose
